Counter-ions that a name gives are not always drawn. Like-named read-outs stand apart in the source and are kept apart here.
Biological target: Recombinant Btk (Homo sapiens (Human), UniProt Q06187)
Assay: BTK kinase assay (TR-FRET)
Settings: 1 hour pre-incubation, ATP at Km

Chain of Recombinant Btk (Q06187 whole entry): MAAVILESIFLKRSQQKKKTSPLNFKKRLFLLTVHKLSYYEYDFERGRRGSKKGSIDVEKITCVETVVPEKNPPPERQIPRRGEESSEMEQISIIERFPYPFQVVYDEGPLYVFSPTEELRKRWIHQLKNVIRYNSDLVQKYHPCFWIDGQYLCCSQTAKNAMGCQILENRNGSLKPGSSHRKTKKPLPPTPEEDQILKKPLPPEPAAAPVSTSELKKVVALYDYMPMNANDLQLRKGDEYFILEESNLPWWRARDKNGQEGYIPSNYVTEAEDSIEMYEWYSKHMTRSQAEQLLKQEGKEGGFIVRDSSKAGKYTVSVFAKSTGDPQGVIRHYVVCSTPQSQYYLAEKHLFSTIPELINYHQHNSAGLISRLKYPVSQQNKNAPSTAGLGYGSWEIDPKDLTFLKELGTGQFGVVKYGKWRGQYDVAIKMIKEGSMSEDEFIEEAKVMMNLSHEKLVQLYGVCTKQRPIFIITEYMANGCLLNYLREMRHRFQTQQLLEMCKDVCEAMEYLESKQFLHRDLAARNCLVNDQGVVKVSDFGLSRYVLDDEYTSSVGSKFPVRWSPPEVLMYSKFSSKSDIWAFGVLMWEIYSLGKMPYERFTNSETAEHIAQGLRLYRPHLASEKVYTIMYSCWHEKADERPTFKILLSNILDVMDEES

Row | SMILES | IC50 (read-out: IC50 (nM) Btk) [nM] | IC50 (IC50 (nM) Btk) [nM]
1 | NC(=O)c1c(-c2ccc(Oc3ccccc3)cc2)nn2c1NC[C@H]1CNC[C@H]12 (relative stereo) [Compound 115] | 8200 | 
2 | C=CC(=O)Nc1ccccc1C1CCNc2c(C(N)=O)c(-c3ccc(OCc4ccccc4)cc3)nn21 (single isomer, unassigned) [Compound 10b] |  | 42
3 | C=CC(=O)N1CCC2[C@H](CNc3c(C(N)=O)c(-c4ccc(Oc5ccccc5)cc4)nn32)C1 (single isomer, unassigned) [Compound 30b] | 16 | 
4 | CC(C)(C)OC(=O)N1CC2[C@@H](CNc3c(C(N)=O)c(-c4ccc(Oc5ccccc5)cc4)nn32)C1 (single isomer, unassigned) [Compound 114, Cis-7-(1-tert-Butoxycarbonyl)-2-(4-phenoxyphenyl)-5,5a,6,7,8,8a-hexahydro-4H-pyrazolo[1,5-a]pyrrolo[3,4-e]pyrimidine-3-carboxamide] | 6000 | 
5 | N#Cc1c(-c2ccc(Oc3ccccc3)cc2)nn2c(-c3cccc(N)c3)ccnc12 [Compound 1, 7-(3-Aminophenyl)-2-(4-phenoxyphenyl)pyrazolo[1,5-a]pyrimidine-3-carbonitrile] | > 10000 | 
6 | NC(=O)c1c(-c2ccc(Oc3ccccc3)cc2)nn2c1NCCC2c1cccc(N)c1 (stereo not drawn) [Compound 2, 7-(3-Aminophenyl)-2-(4-phenoxyphenyl)-4,5,6,7-tetrahydropyrazolo [1,5-a]pyrimidine-3-carboxamide] | 360 | 
7 | NC(=O)c1c(-c2ccc(Oc3ccccc3)cc2)nn2c(-c3cccc(N)c3)ccnc12 [Compound 7, 7-(3-Aminophenyl)-2-(4-phenoxyphenyl)pyrazolo[1,5-a]pyrimidine-3-carboxamide] | > 10000 | 
8 | NC(=O)c1c(-c2ccc(OCc3ccccc3)cc2)nn2c1NCCC2c1ccccc1N (stereo not drawn) [Compound 9, 7-(2-Aminophenyl)-2-(4-(benzyloxy)phenyl)-4,5,6,7-tetrahydro pyrazolo[1,5-a]pyrimidine-3-carboxamide] | 3700 | 
9 | NC(=O)c1c(-c2ccc(Oc3ccc(F)cc3)cc2)nn2c1NCCC2c1ccccc1N (stereo not drawn) [Compound 11, 7-(2-Aminophenyl)-2-(4-(4-fluorophenoxy)phenyl)-4,5,6,7-tetrahydro pyrazolo[1,5-a]pyrimidine-3-carboxamide] | 4500 | 
10 | C=CC(=O)Nc1ccccc1C1CCNc2c(C(N)=O)c(-c3ccc(Oc4ccc(F)cc4)cc3)nn21 (stereo not drawn) [Compound 12, 7-(2-Acrylamidophenyl)-2-(4-(4-fluorophenoxy)phenyl)-4,5,6,7-tetrahydropyrazolo[1,5-a]pyrimidine-3-carboxamide] | 1.7 | 
11 | CNc1ccccc1C1CCNc2c(C(N)=O)c(-c3ccc(Oc4ccc(F)cc4)cc3)nn21 (stereo not drawn) [Compound 15, 2-(4-(4-Fluorophenoxy)phenyl)-7-(2-(methylamino)phenyl)-4,5,6,7-tetrahydropyrazolo[1,5-a]pyrimidine-3-carboxamide] | 2700 | 
12 | C=CC(=O)N(C)c1ccccc1C1CCNc2c(C(N)=O)c(-c3ccc(Oc4ccc(F)cc4)cc3)nn21 (stereo not drawn) [Compound 16, 2-(4-(4-Fluorophenoxy)phenyl)-7-(2-(N-methylacrylamido)phenyl)-4,5,6,7-tetrahydropyrazolo[1,5-a]pyrimidine-3-carboxamide] | 19 | 
13 | NC(=O)c1c(-c2ccc(OC3CCCC3)cc2)nn2c1NCCC2c1ccccc1N (stereo not drawn) [Compound 17, 7-(2-Aminophenyl)-2-(4-(cyclopentyloxy)phenyl)-4,5,6,7-tetrahydro pyrazolo[1,5-a]pyrimidine-3-carboxamide] | > 10000 | 
14 | NC(=O)c1c(-c2ccc(OCC3CC3)cc2)nn2c1NCCC2c1ccccc1N (stereo not drawn) [Compound 19, 7-(2-Aminophenyl)-2-(4-(cyclopropylmethoxy)phenyl)-4,5,6,7-tetrahydropyrazolo[1,5-a]pyrimidine-3-carboxamide] | 5300 | 
15 | COCCOc1ccc(-c2nn3c(c2C(N)=O)NCCC3c2ccccc2N)cc1 (stereo not drawn) [Compound 21, 7-(2-Aminophenyl)-2-(4-(2-methoxyethoxy)phenyl)-4,5,6,7-tetrahydropyrazolo[1,5-a]pyrimidine-3-carboxamide] | > 10000 | 
16 | NC(=O)c1c(-c2ccc(OC3CCOCC3)cc2)nn2c1NCCC2c1ccccc1N (stereo not drawn) [Compound 23, 7-(2-Aminophenyl)-2-(4-(tetrahydro-2H-pyran-4-yloxy)phenyl)-4,5,6,7-tetrahydropyrazolo[1,5-a]pyrimidine-3-carboxamide] | 3200 | 
17 | C=CC(=O)Nc1ccccc1C1CCNc2c(C(N)=O)c(-c3ccc(OC4CCOCC4)cc3)nn21 (stereo not drawn) [Compound 24, 7-(2-Acrylamidophenyl)-2-(4-(tetrahydro-2H-pyran-4-yloxy)phenyl)-4,5,6,7-tetrahydropyrazolo[1,5-a]pyrimidine-3-carboxamide] | 39 | 
18 | CC(C)(C)OC(=O)N1CCC(C2CCNc3c(C(N)=O)c(-c4ccc(Oc5ccccc5)cc4)nn32)CC1 (stereo not drawn) [Compound 25, 7-(1-(Tert-butoxycarbonyl)piperidin-4-yl)-2-(4-phenoxyphenyl)-4,5,6,7-tetrahydropyrazolo[1,5-a]pyrimidine-3-carboxamide] | 3100 | 

Row | SMILES | IC50 (read-out: IC50 (nM) Btk) [nM] | IC50 (IC50 (nM) Btk) [nM]
19 | NC(=O)c1c(-c2ccc(Oc3ccccc3)cc2)nn2c1NCCC2C1CCNCC1 (stereo not drawn) [Compound 26, 7-(Piperidin-4-yl)-2-(4-phenoxyphenyl)-4,5,6,7-tetrahydropyrazolo [1,5-a]pyrimidine-3-carboxamide trifluoroacetate] | 1700 | 
20 | NCC1CCNc2c(C(N)=O)c(-c3ccc(Oc4ccccc4)cc3)nn21 (stereo not drawn) [Compound 32, 7-(Aminomethyl)-2-(4-phenoxyphenyl)-4,5,6,7-tetrahydropyrazolo [1,5-a]pyrimidine-3-carboxamide] | 1700 | 
21 | CNCC1CCNc2c(C(N)=O)c(-c3ccc(Oc4ccccc4)cc3)nn21 (stereo not drawn) [Compound 34, 7-((Methylamino)methyl)-2-(4-phenoxyphenyl)-4,5,6,7-tetrahydro pyrazolo[1,5-a]pyrimidine-3-carboxamide] | 1900 | 
22 | C=CC(=O)N(C)CC1CCNc2c(C(N)=O)c(-c3ccc(Oc4ccccc4)cc3)nn21 (stereo not drawn) [Compound 35] | 1.1 | 
23 | NCC1CCNc2c(C(N)=O)c(-c3cnn(Cc4ccccc4)c3)nn21 (stereo not drawn) [Compound 36, 7-(Aminomethyl)-2-(1-benzyl-1H-pyrazol-4-yl)-4,5,6,7-tetrahydro pyrazolo[1,5-a]pyrimidine-3-carboxamide trifluoroacetate] | > 10000 | 
24 | C=CC(=O)NCC1CCNc2c(C(N)=O)c(-c3cnn(Cc4ccccc4)c3)nn21 (stereo not drawn) [Compound 37, 7-(Acrylamidomethyl)-2-(1-benzyl-1H-pyrazol-4-yl)-4,5,6,7-tetrahydropyrazolo[1,5-a]pyrimidine-3-carboxamide] | 640 | 
25 | NC(=O)c1c(-c2ccc(Oc3ccccc3)cc2)nn2c1NCC21CCN(Cc2ccccc2)CC1 [Compound 38, 1′-Benzyl-6-(4-phenoxyphenyl)-1,2-dihydrospiro[imidazo[1,2-b]pyrazole-3,4′-piperidine]-7-carboxamide] | 490 | 
26 | NC(=O)c1c(-c2ccc(Oc3ccccc3)cc2)nn2c1NCC21CCNCC1 [Compound 39, 6-(4-Phenoxyphenyl)-1,2-dihydrospiro[imidazo[1,2-b]pyrazole-3,4′-piperidine]-7-carboxamide] | 1400 | 
27 | NC(=O)c1c(-c2ccc(Oc3ccccc3)cc2)nn2c1NCCC21CCN(Cc2ccccc2)CC1 [Compound 41, 1-Benzyl-2′-(4-phenoxyphenyl)-5′,6′-dihydro-4′H-spiro[piperidine-4,7′-pyrazolo[1,5-a]pyrimidine]-3′-carboxamide] | 180 | 
28 | NC(=O)c1c(-c2ccc(Oc3ccccc3)cc2)nn2c1NCCC21CCNCC1 [Compound 42, 2′-(4-Phenoxyphenyl)-5′,6′-dihydro-4′H-spiro[piperidine-4,7′-pyrazolo [1,5-a]pyrimidine]-3′-carboxamide trifluoroacetate] | 330 | 
29 | C=CC(=O)N1CCC2(CCNc3c(C(N)=O)c(-c4ccc(Oc5ccccc5)cc4)nn32)CC1 [Compound 43, 1-Acryloyl-2′-(4-phenoxyphenyl)-5′,6′-dihydro-4′H-spiro[piperidine-4,7′-pyrazolo[1,5-a]pyrimidine]-3′-carboxamide] | 3 | 
30 | NC(=O)c1c(-c2ccc(Oc3ccccc3)cc2)nn2c1NCC21CN(Cc2ccccc2)C1 [Compound 44, 1-Benzyl-6′-(4-phenoxyphenyl)-1′,2′-dihydrospiro[azetidine-3,3′-imidazo[1,2-b]pyrazole]-7′-carboxamide] | 220 | 
31 | NC(=O)c1c(-c2ccc(Oc3ccccc3)cc2)nn2c1NCC21CNC1 [Compound 45, 6′-(4-Phenoxyphenyl)-1′,2′-dihydrospiro[azetidine-3,3′-imidazo[1,2-b]pyrazole]-7′-carboxamide] | 510 | 
32 | C=CC(=O)N1CC2(CNc3c(C(N)=O)c(-c4ccc(Oc5ccccc5)cc4)nn32)C1 [Compound 46, 1-Acryloyl-6′-(4-phenoxyphenyl)-1′,2′-dihydrospiro[azetidine-3,3′-imidazo[1,2-b]pyrazole]-7′-carboxamide] | 5 | 
33 | NC(=O)c1c(-c2ccc(Oc3ccccc3)cc2)nn2cc(-c3cccc(N)c3)[nH]c12 [Compound 47, 2-(3-Aminophenyl)-6-(4-phenoxyphenyl)-1H-imidazo[1,2-b]pyrazole-7-carboxamide] | 110 | 
34 | NC(=O)c1c(-c2ccc(Oc3ccccc3)cc2)nn2c(-c3cccc(N)c3)c[nH]c12 [Compound 49, 3-(3-Aminophenyl)-6-(4-phenoxyphenyl)-1H-pyrazolo[1,5-a]imidazole-7-carboxamide] | 29 | 
35 | NC(=O)c1c(-c2ccc(Oc3ccccc3)cc2)nn2c3c([nH]c12)CCNC3 [Compound 51, 2-(4-Phenoxyphenyl)-5,6,7,8-tetrahydro-4H-pyrazolo[5′,1′:2,3]imidazo[4,5-c]pyridine-3-carboxamide trifluoroacetate] | 310 | 
36 | NC(=O)c1c(-c2ccc(Oc3ccccc3)cc2)nn2c3c([nH]c12)CCN(C(=O)CCCl)C3 [Compound 53, 7-(3-Chloropropanoyl)-2-(4-phenoxyphenyl)-5,6,7,8-tetrahydro-4H-pyrazolo[5′,1′:2,3]imidazo[4,5-c]pyridine-3-carboxamide] | 7.7 | 
